How the values were obtained:
[1] = Encapsulation efficiency of small molecule pharmaceutical agents using excipient formulations; format: physicochemical; conditions: PEG-PPS system
Protocol: Samples used in Table 2 were prepared as follows. 10 mg of PEG-PPS was added to a 1.5 mL centrifuge tube with either 90 mg of PEG600 or DBU-HCl, and 2 mg of either paclitaxel or dexamethasone. This was heated at 95° C. for 15 min and mixed thoroughly. After cooling to RT, the blend was slowly diluted to 1 mL with distilled water. The free pharmaceutical agent was pelleted via centrifugation for 10 minutes at 10,000 g, and the pellet and supernatant were separately freeze dried, and analyzed in THF via gel permeation chromatography. Dexamethasone and paclitaxel results were quantified using a standard curve.

[2] = test system: caco-2 cells (enterocytes) and lymphatic endothelial cells (LECs); test: Transport in coculture model of gut lymphatic uptake; format: in vitro ADME; conditions: caco-2/LEC coculture
Protocol: Given that PEG-PPS nanoparticles can survive harsh conditions such as gastric pH, we contemplated their transport in the gut lymphatics, determining their potential to be processed by mechanisms related to fat uptake in the gut. This was measured using a coculture model of caco-2 cells (enterocytes) and lymphatic endothelial cells (LECs), allowing full characterization of uptake, packaging, and transit (collectively referred to as transport). It was determined that the surface characteristics of PPS-based nanoparticles can be engineered to provide for effective transport: for example, particles on which about 10% of the terminal chain groups were substituted with a carboxyl functionality were transported at a level 5-fold higher than that of equivalent particles lacking a surface charge. Other surface charging moieties, such as sulfates and sulfones, are similarly effective after optimization.

Row | Compound | Encapsulation, method of the invention versus solvent dispersion [1] | Uptake / transport [2]
1 | C[C@@H]1[C@H](O)[C@@H](C)/C=C/C=C/C=C/C=C/C=C/C=C/C=C/[C@H](O[C@@H]2O[C@H](C)[C@@H](O)[C@H](N)[C@@H]2O)C[C@@H]2O[C@](O)(C[C@@H](O)C[C@@H](O)[C@H](O)CC[C@@H](O)C[C@@H](O)CC(=O)O[C@H]1C)C[C@H](O)[C@H]2C(=O)O [amphotericin B] | more efficiently encapsulated via solvent dispersion | 
2 | CO[C@H]1C[C@@H]2CC[C@@H](C)[C@@](O)(O2)C(=O)C(=O)N2CCCC[C@H]2C(=O)O[C@H]([C@H](C)C[C@@H]2CC[C@@H](OCCO)[C@H](OC)C2)CC(=O)[C@H](C)/C=C(\C)[C@@H](O)[C@@H](OC)C(=O)[C@H](C)C[C@H](C)/C=C/C=C/C=C/1C [everolimus] | efficiently encapsulated | 
3 | CC(=O)O[C@H]1C(=O)[C@@]2(C)[C@H]([C@H](OC(=O)c3ccccc3)[C@]3(O)C[C@H](OC(=O)[C@H](O)[C@@H](NC(=O)c4ccccc4)c4ccccc4)C(C)=C1C3(C)C)[C@]1(OC(C)=O)CO[C@@H]1C[C@@H]2O [paclitaxel] | more efficiently encapsulated via the method of the invention | 
4 | dextran |  | not well transported
